{"source": "patent US20250282799A1", "about": "“SUBSTITUTED PYRIDO[4,3-d]PYRIMIDINES AS KRAS MODULATORS” (Alterome Therapeutics, Inc., priority 2023, published 2025)", "test_system": "KRAS G12V dependent lung adenocarcinoma cell line, NCI-H441", "assay": "Cellular pERK (Thr202/Tyr204) FRET/HTRF assay", "type": "cell-based", "settings": "NCI-H441 cells", "procedure,_shortened": "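NCI-H441 cells (KRAS G12V) plated overnight at 37 °C, then exposed to compounds for 1 hr at 37 °C, 5% CO2; DMSO as negative control. Lysates read by Eu-cryptate/d2 sandwich FRET (665 nm) for ERK1/2 phosphorylated at Thr202/Tyr204; IC50 from curve fit.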", "key": {"[1]": {"settings": "Homo sapiens, NCI-H441, cellular pERK (Thr202/Tyr204) HTRF"}}, "data": [{"smiles": "C#Cc1c(Cl)ccc2cc(N)cc(-c3ncc4c(N5CCOC[C@@H]6[C@@H](Cl)[C@@H]65)nc(OC[C@@H]5CCCN5C)nc4c3F)c12", "note": "[Example 326, 6-chloro-4-(4-((1R,7R,8R)-8-chloro-5-oxa-2-azabicyclo[5.1.0]octan-2-yl)-8-fluoro-2-(((S)-1-methylpyrrolidin-2-yl)methoxy)pyrido[4,3-d]pyrimidin-7-yl)-5-ethynylnaphthalen-2-amine]", "values": [{"measurement": "IC50", "setting": "[1]", "value": "50 to 500", "unit": "nM"}]}, {"smiles": "C#Cc1cccc2cc(N)cc(-c3ncc4c(N5CCOC[C@@H]6[C@@H](Cl)[C@@H]65)nc(OC[C@@H]5CCCN5C)nc4c3F)c12", "note": "[Example 327, 4-(4-((1R,7R,8R)-8-chloro-5-oxa-2-azabicyclo[5.1.0]octan-2-yl)-8-fluoro-2-(((S)-1-methylpyrrolidin-2-yl)methoxy)pyrido[4,3-d]pyrimidin-7-yl)-5-ethynylnaphthalen-2-amine]", "values": [{"measurement": "IC50", "setting": "[1]", "value": "50 to 500", "unit": "nM"}]}, {"smiles": "[2H]C([2H])(Oc1nc(N2CCOC[C@H]3[C@H](F)[C@H]32)c2cc(C(F)(F)F)c(-c3cc(N)cc4ccc(F)c(C#C)c34)c(F)c2n1)[C@@]12CCCN1C[C@H](F)C2", "note": "[Example 328, 5-ethynyl-6-fluoro-4-(8-fluoro-4-((1S,7S,8S)-8-fluoro-5-oxa-2-azabicyclo[5.1.0]octan-2-yl)-2-(((2R,7aS)-2-fluorotetrahydro-1H-pyrrolizin-7a(5H)-yl)methoxy-d2)-6-(trifluoromethyl)quinazolin-7-yl)naphthalen-2-amine]", "values": [{"measurement": "IC50", "setting": "[1]", "value": "500 to 10000", "unit": "nM"}]}, {"smiles": "[2H]C([2H])(Oc1nc(N2CCOC[C@H]3[C@H](F)[C@H]32)c2cnc(-c3cc(N)cc4ccc(F)c(C#C)c34)c(C)c2n1)[C@@]12CCCN1C[C@H](F)C2", "note": "[Example 329, 5-Ethynyl-6-fluoro-4-(4-((1S,7S,8S)-8-fluoro-5-oxa-2-azabicyclo[5.1.0]octan-2-yl)-2-(((2R,7aS)-2-fluorotetrahydro-1H-pyrrolizin-7a(5H)-yl)methoxy-d2)-8-methylpyrido[4,3-d]pyrimidin-7-yl)naphthalen-2-amine]", "values": [{"measurement": "IC50", "setting": "[1]", "value": "< 50", "unit": "nM"}]}, {"smiles": "[2H]C([2H])(Oc1nc(N2CCOC[C@H]3[C@H](F)[C@H]32)c2cnc(-c3cc(O)c(F)c(C)c3C(F)(F)F)c(F)c2n1)[C@@]12CCCN1C[C@H](F)C2", "note": "[Example 330, 2-fluoro-5-(8-fluoro-4-((1S,7S,8S)-8-fluoro-5-oxa-2-azabicyclo[5.1.0]octan-2-yl)-2-(((2R,7aS)-2-fluorotetrahydro-1H-pyrrolizin-7a(5H)-yl)methoxy-d2)pyrido[4,3-d]pyrimidin-7-yl)-3-methyl-4-(trifluoromethyl)phenol]", "values": [{"measurement": "IC50", "setting": "[1]", "value": "50 to 500", "unit": "nM"}]}, {"smiles": "[2H]C([2H])(Oc1nc(N2CCOC[C@H]3[C@H](F)[C@H]32)c2cnc(-c3cc(N)cc4ccc(C)c(C#C)c34)c(F)c2n1)[C@@]12CCCN1C[C@H](F)C2", "note": "[Example 331, 5-Ethynyl-4-(8-fluoro-4-((1S,7S,8S)-8-fluoro-5-oxa-2-azabicyclo[5.1.0]octan-2-yl)-2-(((2R,7aS)-2-fluorotetrahydro-1H-pyrrolizin-7a(5H)-yl)methoxy-d2)pyrido[4,3-d]pyrimidin-7-yl)-6-methylnaphthalen-2-amine]", "values": [{"measurement": "IC50", "setting": "[1]", "value": "< 50", "unit": "nM"}]}, {"smiles": "[2H]C([2H])(Oc1nc(N2CCOC[C@H]3[C@H](F)[C@H]32)c2cnc(-c3cccc4ccc(C(F)(F)F)c(C#C)c34)c(F)c2n1)[C@@]12CCCN1C[C@H](F)C2", "note": "[Example 332, (1S,7S,8S)-2-(7-(8-ethynyl-7-(trifluoromethyl)naphthalen-1-yl)-8-fluoro-2-(((2R,7aS)-2-fluorotetrahydro-1H-pyrrolizin-7a(5H)-yl)methoxy-d2)pyrido[4,3-d]pyrimidin-4-yl)-8-fluoro-5-oxa-2-azabicyclo[5.1.0]octane]", "values": [{"measurement": "IC50", "setting": "[1]", "value": "50 to 500", "unit": "nM"}]}, {"smiles": "[2H]C([2H])(Oc1nc(N2CCOC[C@H]3[C@H](F)[C@H]32)c2cnc(-c3cc(N)cc4ccc(F)c(C#C)c34)c(F)c2n1)[C@@]12CCCN1[C@H](C)[C@H](F)C2", "note": "[Example 333, 5-Ethynyl-6-fluoro-4-(8-fluoro-2-(((2R,3R,7aS)-2-fluoro-3-methyltetrahydro-1H-pyrrolizin-7a(5H)-yl)methoxy-d2)-4-((1S,7S,8S)-8-fluoro-5-oxa-2-azabicyclo[5.1.0]octan-2-yl)pyrido[4,3-d]pyrimidin-7-yl)naphthalen-2-amine]", "values": [{"measurement": "IC50", "setting": "[1]", "value": "< 50", "unit": "nM"}]}, {"smiles": "[2H]C([2H])(Oc1nc(N2CCOC[C@H]3[C@H](F)[C@H]32)c2cnc(-c3cc(N)cc4ccc(F)c(C#C)c34)c(F)c2n1)[C@@]12CCCN1[C@@H](C)[C@H](F)C2", "note": "[Example 334, 5-ethynyl-6-fluoro-4-(8-fluoro-2-(((2R,3S,7aS)-2-fluoro-3-methyltetrahydro-1H-pyrrolizin-7a(5H)-yl)methoxy-d2)-4-((1S,7S,8S)-8-fluoro-5-oxa-2-azabicyclo[5.1.0]octan-2-yl)pyrido[4,3-d]pyrimidin-7-yl)naphthalen-2-amine]", "values": [{"measurement": "IC50", "setting": "[1]", "value": "< 50", "unit": "nM"}]}, {"smiles": "[2H]C([2H])(Oc1nc(N2CCOC[C@H]3[C@H](F)[C@H]32)c2cnc(-c3cc(O)cc(C)c3C(F)(F)F)c(F)c2n1)[C@@]12CCCN1C[C@H](F)C2", "note": "[Example 335, 3-(8-fluoro-4-((1S,7S,8S)-8-fluoro-5-oxa-2-azabicyclo[5.1.0]octan-2-yl)-2-(((2R,7aS)-2-fluorotetrahydro-1H-pyrrolizin-7a(5H)-yl)methoxy-d2)pyrido[4,3-d]pyrimidin-7-yl)-5-methyl-4-(trifluoromethyl)phenol]", "values": [{"measurement": "IC50", "setting": "[1]", "value": "< 50", "unit": "nM"}]}, {"smiles": "C#Cc1c(C(F)(F)F)ccc2cccc(-c3ncc4c(N5CCOC[C@H]6[C@H](F)[C@H]65)nc(OC[C@]56C[C@@H](F)CN5C[C@@H](CN)C6)nc4c3F)c12", "note": "[Example 336, ((2R,6R,7aS)-7a-(((7-(8-ethynyl-7-(trifluoromethyl)naphthalen-1-yl)-8-fluoro-4-((1S,7S,8S)-8-fluoro-5-oxa-2-azabicyclo[5.1.0]octan-2-yl)pyrido[4,3-d]pyrimidin-2-yl)oxy)methyl)-6-fluorohexahydro-1H-pyrrolizin-2-yl)methanamine]", "values": [{"measurement": "IC50", "setting": "[1]", "value": "500 to 10000", "unit": "nM"}]}, {"smiles": "[2H]C([2H])(Oc1nc(N2CCOC[C@H]3[C@H](F)[C@H]32)c2cnc(-c3cc(N)cc4ccc(Cl)c(C#C)c34)c(F)c2n1)[C@@]12CCCN1[C@H](C)[C@H](F)C2", "note": "[Example 337, 6-chloro-5-ethynyl-4-(8-fluoro-2-(((2R,3R,7aS)-2-fluoro-3-methyltetrahydro-1H-pyrrolizin-7a(5H)-yl)methoxy-d2)-4-((1S,7S,8S)-8-fluoro-5-oxa-2-azabicyclo[5.1.0]octan-2-yl)pyrido[4,3-d]pyrimidin-7-yl)naphthalen-2-amine]", "values": [{"measurement": "IC50", "setting": "[1]", "value": "< 50", "unit": "nM"}]}, {"smiles": "[2H]C([2H])(Oc1nc(N2CCOC[C@H]3[C@H](F)[C@H]32)c2cnc(-c3cc(N)cc4cccc(C#C)c34)c(F)c2n1)[C@@]12CCCN1[C@H](C)[C@H](F)C2", "note": "[Example 338, 5-ethynyl-4-(8-fluoro-2-(((2R,3R,7aS)-2-fluoro-3-methyltetrahydro-1H-pyrrolizin-7a(5H)-yl)methoxy-d2)-4-((1S,7S,8S)-8-fluoro-5-oxa-2-azabicyclo[5.1.0]octan-2-yl)pyrido[4,3-d]pyrimidin-7-yl)naphthalen-2-amine]", "values": [{"measurement": "IC50", "setting": "[1]", "value": "< 50", "unit": "nM"}]}, {"smiles": "[2H]C([2H])(Oc1nc(N2CCOC[C@@H]3[C@@H](Cl)[C@@H]32)c2cnc(-c3cc(N)cc4ccc(Cl)c(C#C)c34)c(F)c2n1)[C@@]12CCCN1[C@H](C)[C@H](F)C2", "note": "[Example 345, 6-chloro-4-(4-((1R,7R,8R)-8-chloro-5-oxa-2-azabicyclo[5.1.0]octan-2-yl)-8-fluoro-2-(((2R,3R,7aS)-2-fluoro-3-methyltetrahydro-1H-pyrrolizin-7a(5H)-yl)methoxy-d2)pyrido[4,3-d]pyrimidin-7-yl)-5-ethynylnaphthalen-2-amine]", "values": [{"measurement": "IC50", "setting": "[1]", "value": "500 to 10000", "unit": "nM"}]}, {"smiles": "[2H]C([2H])(Oc1nc(N2CCOC[C@@H]3[C@@H](Cl)[C@@H]32)c2cnc(-c3cc(N)cc4cccc(C#C)c34)c(F)c2n1)[C@@]12CCCN1[C@H](C)[C@H](F)C2", "note": "[Example 346, 4-(4-((1R,7R,8R)-8-chloro-5-oxa-2-azabicyclo[5.1.0]octan-2-yl)-8-fluoro-2-(((2R,3R,7aS)-2-fluoro-3-methyltetrahydro-1H-pyrrolizin-7a(5H)-yl)methoxy-d2)pyrido[4,3-d]pyrimidin-7-yl)-5-ethynylnaphthalen-2-amine]", "values": [{"measurement": "IC50", "setting": "[1]", "value": "500 to 10000", "unit": "nM"}]}, {"smiles": "C#Cc1c(F)ccc2cc(N)cc(-c3ncc4c(N5CCOC[C@@H]6[C@@H](Cl)[C@@H]65)nc(OC[C@]56CC(=C)CN5CCC65CC5)nc4c3C)c12", "note": "[Example 347, 4-(4-((1R,7R,8R)-8-chloro-5-oxa-2-azabicyclo[5.1.0]octan-2-yl)-8-methyl-2-(((R)-6′-methylenetetrahydrospiro[cyclopropane-1,1′-pyrrolizin]-7a′(5′H)-yl)methoxy)pyrido[4,3-d]pyrimidin-7-yl)-5-ethynyl-6-fluoronaphthalen-2-amine]", "values": [{"measurement": "IC50", "setting": "[1]", "value": "500 to 10000", "unit": "nM"}]}, {"smiles": "[2H]C([2H])(Oc1nc(N2CCOC[C@H]3[C@H](Cl)[C@H]32)c2cnc(-c3cc(N)cc4cccc(C#C)c34)c(F)c2n1)[C@@]12CCCN1[C@H](C)[C@H](F)C2", "note": "[Example 348, 4-(4-((1S,7S,8S)-8-chloro-5-oxa-2-azabicyclo[5.1.0]octan-2-yl)-8-fluoro-2-(((2R,3R,7aS)-2-fluoro-3-methyltetrahydro-1H-pyrrolizin-7a(5H)-yl)methoxy-d2)pyrido[4,3-d]pyrimidin-7-yl)-5-ethynylnaphthalen-2-amine]", "values": [{"measurement": "IC50", "setting": "[1]", "value": "< 50", "unit": "nM"}]}, {"smiles": "[2H]C([2H])(Oc1nc(N2CCOC[C@H]3[C@H](F)[C@H]32)c2cc(C#N)c(-c3cc(N)cc4ccc(F)c(C#C)c34)c(F)c2n1)[C@@]12CCCN1C[C@H](F)C2", "note": "[Example 353, 7-(3-Amino-8-ethynyl-7-fluoronaphthalen-1-yl)-8-fluoro-4-((1S,7S,8S)-8-fluoro-5-oxa-2-azabicyclo[5.1.0]octan-2-yl)-2-(((2R,7aS)-2-fluorotetrahydro-1H-pyrrolizin-7a(5H)-yl)methoxy-d2)quinazoline-6-carbonitrile]", "values": [{"measurement": "IC50", "setting": "cellular pERK (Thr202/Tyr204) HTRF", "value": "< 50", "unit": "nM"}]}]}
